Test results as given in patent US20260364184A1, “COMPOUND BASED ON OXOISOINDOLINYL-SUBSTITUTED TETRAHYDROPYRIMIDINE-DIONE AND USE THEREOF” (GLUETACS THERAPEUTICS (SHANGHAI) CO., LTD., priority 2023, published 2026).

Legend:
[1] = test system: Human breast cancer cell line (MDA-MB-231); assay: Inhibition of MDA-MB-231 cell proliferation (CellTiter luminescent viability); type: cell-based; details: Table IG3, FAK inhibitor-based, 96 hours; for inhibition at 0.01 µM: MDA-MB-231, 10 nM, read-out: Inhibition Rate at 10 nM (%); for inhibition at 0.5 µM: MDA-MB-231, 500 nM, read-out: Inhibition Rate at 500 nM (%)
Method: The tumor cells used herein were cultured in a cell culture medium listed in table 3 at 37 °C in an incubator with 5% CO2. Prior to experimentation, all cell lines used were correctly identified by STR profiling, and tested negative for mycoplasma contamination using a mycoplasma detection kit through routine screenings.
The IC50 values of the compounds of the present disclosure (including the compounds in Table 1, Table 2, and Examples 1-468) were determined using the CellTiter-Meiluncell Luminescent Cell Viability Assay Kit from Dalian Meilun Biotech Co., Ltd. The detailed procedure is as follows: Tumor cells were seeded in 96-well cell culture plates at the densities specified in Table 4. On the following day, the test compounds of the present disclosure were subjected to serial dilution. The dilution can be performed according to one of the following two methods: • (1) The first dilution method: The test compounds of the present disclosure (including the compounds in Table 1, Table 2, and Examples 1-468) were subjected to 5-fold serial dilutions starting from a highest concentration of 2000 μM, resulting in a total of 9 concentrations from high to low (2000, 400, 80, 16, 3.2, 0.64, 0.128, 0.0256, 0.00512 μM). Subsequently, 0.5 μL of the test compound dilution was transferred into the 96-well plate containing the cells, with each well containing 100 μL of cell culture medium. […] Into the 96-well plate, the diluted test compounds and corresponding detection reagents were added, resulting in final test compound concentrations of 500 nM and 10 nM, respectively. The experimental procedure is described below using the diluted 2 μM test compound as an example.
0.5 μL of the aforementioned diluted compound of the present disclosure (including the compounds in Table 1, Table 2, and Examples 1-468) was added to the seeded cells in 100 μL of medium, yielding a final test compound concentration of 10 nM. After the cells were treated with the compounds of the present disclosure for a specified period, the cell viability assay reagent was added to the culture medium according to the kit's instructions to determine cell viability. […] All controls were treated using the same procedure as the compounds of the present disclosure. The growth inhibition curves for the compounds of the present disclosure were plotted using Prism GraphPad software, and the IC50 values were calculated therefrom.

[2] = test system: Human myeloid monocytic leukemia cell line (MV-4-11); assay: Inhibition of MV-4-11 cell proliferation (CellTiter luminescent viability); type: cell-based; details: Homo sapiens, MV4-11, Table IG2, FAK inhibitor-based, 96 hours; for inhibition at 0.01 µM: MV-4-11, 10 nM, read-out: Inhibition Rate at 10 nM (%); for inhibition at 0.5 µM: MV-4-11, 500 nM, read-out: Inhibition Rate at 500 nM (%)
Method in brief: (§1)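 IC50 is fitted from luminescent viability (CellTiter-Meiluncell) curves. Nine-point, 5-fold dilution series (top stock 2000 μM) are added at 0.5 μL per 100 μL medium to cells plated the day before, with growth at 37 °C and 5% CO2.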

[3] = target: T1, FAK (Homo sapiens, UniProt Q05397); assay: Western blot degradation of FAK; type: cell-based; details: A549 Cell; 24 hours
T1 construct: expression of target proteins in cells; endogenous in cells
Method: Conventional Western blot assay was performed to evaluate the effects of the compounds of the present disclosure on the expression of target proteins in cells.
(1) Cell Seeding and Protein Harvesting: The selected cells were processed according to the cell seeding procedure and protein harvesting procedure in Table II-2.
(2) To the collected supernatant, 5×SDS sample loading buffer was added, followed by denaturation at 95 °C for 5 minutes. The denatured samples were then separated by SDS-PAGE electrophoresis on a polyacrylamide gel. Proteins were transferred to a nitrocellulose membrane (0.45 μm NC membrane), blocked with blocking buffer at room temperature for 1 hour, and subjected to antibody incubation and development procedures according to the antibody manufacturer's instructions (Cell Signaling Technology).
Half-Maximal Degradation Concentration value (the drug concentration required for degrading proteins by 50%, abbreviated as DC50) reads method: comparing the grayscale values of Western blot bands from drug-treated samples with those from blank DMSO-treated controls, and identifying the drug concentration range at which the grayscale value is half that of the DMSO-treated control bands.
DC50 values can be calculated using ImageJ software to measure grayscale values of Western blot bands from drug-treated samples. The concentration-response curve is fitted to estimate the drug concentration corresponding to half the grayscale value.
Target protein remaining (%) refers to the percentage of target protein remaining in cells after treatment with protein degrader compounds.
Calculation method for target protein remaining (%): Use ImageJ software to measure grayscale values of Western blot bands from drug (protein degrader)-treated samples. The grayscale value of drug-treated bands is divided by that of internal control protein bands, and the resulting quotient is normalized to obtain the relative percentage of remaining target protein after protein degrader treatment.
Target protein degradation rate (%)=1−target protein remaining (%).

[4] = test system: Human Multiple myeloma cell line (MM.1S); assay: Inhibition of MM.1S cell proliferation (CellTiter luminescent viability); type: cell-based; details: Homo sapiens, MM1.S, Table IG1, FAK inhibitor-based, 96 hours; for inhibition at 0.01 µM: 10 nM, read-out: Inhibition Rate at 10 nM (%); for inhibition at 0.5 µM: 500 nM, read-out: Inhibition Rate at 500 nM (%)
Method in brief: as §1

[5] = target: T2, human Cereblon WT GST-tagged protein (CRBN) (Homo sapiens, UniProt Q96SW2); assay: CRBN binding by HTRF (Cereblon binding kit)
T2 construct: purchased CISBIO 64BDCRBNPEH
Method in brief: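 GST-tagged human Cereblon WT was incubated 3 h at room temperature with compound, thalidomide-Re tracer and Eu anti-GST antibody. Final compound concentrations were 10 to 0.00064 µM (7 points) or 2 and 0.5 µM. Inhibition rate was calculated from HTRF 665/620 nm ratios versus solvent and blank controls.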

T1 sequence (Q05397 whole entry): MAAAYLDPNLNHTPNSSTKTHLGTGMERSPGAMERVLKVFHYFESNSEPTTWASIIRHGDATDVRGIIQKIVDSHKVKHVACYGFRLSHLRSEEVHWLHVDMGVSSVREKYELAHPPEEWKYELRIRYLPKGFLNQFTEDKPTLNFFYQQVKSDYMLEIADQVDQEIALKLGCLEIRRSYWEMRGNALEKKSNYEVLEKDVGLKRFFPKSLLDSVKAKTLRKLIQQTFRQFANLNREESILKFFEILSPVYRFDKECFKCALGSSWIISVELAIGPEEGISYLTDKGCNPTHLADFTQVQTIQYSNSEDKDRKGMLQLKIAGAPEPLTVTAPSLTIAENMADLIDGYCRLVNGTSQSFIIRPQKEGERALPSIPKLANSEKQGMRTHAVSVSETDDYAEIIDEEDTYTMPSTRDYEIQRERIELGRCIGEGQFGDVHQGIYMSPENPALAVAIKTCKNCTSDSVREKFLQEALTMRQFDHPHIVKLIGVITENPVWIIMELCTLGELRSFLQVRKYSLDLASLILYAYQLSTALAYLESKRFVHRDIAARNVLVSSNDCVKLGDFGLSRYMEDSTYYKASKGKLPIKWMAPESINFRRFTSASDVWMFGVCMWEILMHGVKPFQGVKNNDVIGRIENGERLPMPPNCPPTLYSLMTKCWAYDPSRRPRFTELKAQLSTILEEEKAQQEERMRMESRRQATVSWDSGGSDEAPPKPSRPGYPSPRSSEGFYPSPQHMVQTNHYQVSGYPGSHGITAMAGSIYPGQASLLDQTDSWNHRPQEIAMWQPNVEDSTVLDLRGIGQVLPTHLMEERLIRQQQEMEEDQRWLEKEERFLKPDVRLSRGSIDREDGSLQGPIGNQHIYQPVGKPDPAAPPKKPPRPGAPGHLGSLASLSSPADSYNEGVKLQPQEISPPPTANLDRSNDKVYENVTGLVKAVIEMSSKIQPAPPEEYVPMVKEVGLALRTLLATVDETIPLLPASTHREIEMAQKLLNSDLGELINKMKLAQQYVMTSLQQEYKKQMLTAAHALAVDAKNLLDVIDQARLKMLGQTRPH
T2 sequence (Q96SW2 whole entry): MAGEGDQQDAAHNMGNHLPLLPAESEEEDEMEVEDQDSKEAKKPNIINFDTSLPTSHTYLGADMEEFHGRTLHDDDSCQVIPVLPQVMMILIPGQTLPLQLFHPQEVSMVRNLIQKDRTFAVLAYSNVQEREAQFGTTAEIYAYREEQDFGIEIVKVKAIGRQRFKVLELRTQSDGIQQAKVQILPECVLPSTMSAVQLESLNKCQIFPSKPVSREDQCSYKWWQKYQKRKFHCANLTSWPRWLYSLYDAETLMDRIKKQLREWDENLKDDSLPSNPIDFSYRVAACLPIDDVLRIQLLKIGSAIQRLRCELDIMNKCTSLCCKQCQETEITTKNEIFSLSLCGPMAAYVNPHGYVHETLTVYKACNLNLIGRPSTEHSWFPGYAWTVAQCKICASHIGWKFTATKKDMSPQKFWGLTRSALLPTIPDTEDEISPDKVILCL

SMILES	inhibition at 0.01 µM [1]	inhibition at 0.5 µM [1]	inhibition at 0.01 µM [2]	inhibition at 0.5 µM [2]	Degradation of substrate protein FAK (substrate protein remaining %) [3]	inhibition at 0.01 µM [4]	inhibition at 0.5 µM [4]	Inhibition Rate at 0.5 μM (%) ([5]; 0.5 μM)	Inhibition Rate at 2 μM (%) ([5]; 2 μM)
CN(c1nccnc1CNc1nc(Nc2ccc(N3CCN(CC4CCN(c5ccc6c(c5)C(=O)N(N5CCC(=O)NC5=O)C6=O)CC4)CC3)cc2)ncc1C(F)(F)F)S(C)(=O)=O [GT-07468, N-(3-(((2-((4-(4-((1-(2-(2,4-dioxotetrahydropyrimidin-1(2H)-yl)-1,3-dioxoisoindolin-5-yl)piperidin-4-yl)methyl)piperazin-1-yl)phenyl)amino)-5-(trifluoromethyl)pyrimidin-4-yl)amino)methyl)pyrazin-2-yl)-N-methylmethanesulfonamide]	20 to 30%	50 to 60%	30 to 40%	80 to 100%	A (0%≤substrate protein remaining %≤80%)	20 to 30%	80 to 100%	–	–
CN(c1nccnc1CNc1nc(Nc2ccc(N3CCN(CC4CCN(c5cccc6c5C(=O)N(N5CCC(=O)NC5=O)C6=O)CC4)CC3)cc2)ncc1C(F)(F)F)S(C)(=O)=O [GT-07469, N-(3-(((2-((4-(4-((1-(2-(2,4-dioxotetrahydropyrimidin-1(2H)-yl)-1,3-dioxoisoindolin-4-yl)piperidin-4-yl)methyl)piperazin-1-yl)phenyl)amino)-5-(trifluoromethyl)pyrimidin-4-yl)amino)methyl)pyrazin-2-yl)-N-methylmethanesulfonamide]	30 to 40%	50 to 60%	0 to 5%	80 to 100%	A (0%≤substrate protein remaining %≤80%)	–	–	–	–
CS(=O)(=O)c1cccc(CNc2nc(Nc3ccc(N4CCN(CC5CCN(c6ccc7c(c6)C(=O)N(N6CCC(=O)NC6=O)C7=O)CC5)CC4)cc3)ncc2C(F)(F)F)c1 [GT-07470, 2-(2,4-dioxotetrahydropyrimidin-1(2H)-yl)-5-(4-((4-(4-((4-((3-(methylsulfonyl)benzyl)amino)-5-(trifluoromethyl)pyrimidin-2-yl)amino)phenyl)piperazin-1-yl)methyl)piperidin-1-yl)isoindoline-1,3-dione]	–	–	–	–	A (0%≤substrate protein remaining %≤80%)	–	–	–	–
CS(=O)(=O)c1cccc(CNc2nc(Nc3ccc(N4CCN(CC5CCN(c6cccc7c6C(=O)N(N6CCC(=O)NC6=O)C7=O)CC5)CC4)cc3)ncc2C(F)(F)F)c1 [GT-07471, 2-(2,4-dioxotetrahydropyrimidin-1(2H)-yl)-4-(4-((4-(4-((4-((3-(methylsulfonyl)benzyl)amino)-5-(trifluoromethyl)pyrimidin-2-yl)amino)phenyl)piperazin-1-yl)methyl)piperidin-1-yl)isoindoline-1,3-dione]	–	–	–	–	A (0%≤substrate protein remaining %≤80%)	–	–	–	–
CS(=O)(=O)c1cccc(CNc2nc(Nc3ccc(N4CCN(Cc5ccc6c(c5)CN(N5CCC(=O)NC5=O)C6=O)CC4)cc3)ncc2C(F)(F)F)c1 [GT-07514, 1-(5-((4-(4-((4-((3-(methylsulfonyl)benzyl)amino)-5-(trifluoromethyl)pyrimidin-2-yl)amino)phenyl)piperazin-1-yl)methyl)-1-oxoisoindolin-2-yl)dihydropyrimidine-2,4 (1H,3H)-dione]	–	–	30 to 40%	80 to 100%	A (0%≤substrate protein remaining %≤80%)	–	–	a3 (30% < a3 ≤ 40%)	a5 (53% < a5 ≤ 60%)
CNC(=O)c1ccccc1Nc1cc(Nc2ccc(N3CCC(N(C)Cc4ccc5c(c4)CN(N4CCC(=O)NC4=O)C5=O)CC3)cc2OC)ncc1C(F)(F)F [GT-07647, 2-((2-((4-(4-(((2-(2,4-dioxotetrahydropyrimidin-1(2H)-yl)-1-oxoisoindolin-5-yl)methyl)(methyl)amino)piperidin-1-yl)-2-methoxyphenyl)amino)-5-(trifluoromethyl)pyridin-4-yl)amino)-N-methylbenzamide]	40 to 50%	70 to 80%	40 to 50%	80 to 100%	A (0%≤substrate protein remaining %≤80%)	20 to 30%	40 to 60%	–	–
CNC(=O)c1ccccc1Nc1cc(Nc2ccc(N3CCN(Cc4ccc5c(c4)C(=O)N(N4CCC(=O)NC4=O)C5=O)CC3)cc2OC)ncc1C(F)(F)F [GT-07661, 2-((2-((4-(4-((2-(2,4-dioxotetrahydropyrimidin-1(2H)-yl)-1,3-dioxoisoindolin-5-yl)methyl)piperazin-1-yl)-2-methoxyphenyl)amino)-5-(trifluoromethyl)pyridin-4-yl)amino)-N-methylbenzamide]	–	–	–	–	A (0%≤substrate protein remaining %≤80%)	30 to 40%	40 to 60%	–	–
CNC(=O)c1ccccc1Nc1cc(Nc2cc(C)c(C3CCN(CC4CCN(c5ccc6c(c5)C(=O)N(N5CCC(=O)NC5=O)C6=O)CC4)CC3)cc2OC(C)C)ncc1C(F)(F)F [GT-07665, 2-((2-((4-(1-((1-(2-(2,4-dioxotetrahydropyrimidin-1(2H)-yl)-1,3-dioxoisoindolin-5-yl)piperidin-4-yl)methyl)piperidin-4-yl)-2-isopropoxy-5-methylphenyl)amino)-5-(trifluoromethyl)pyridin-4-yl)amino)-N-methylbenzamide]	–	–	–	–	A (0%≤substrate protein remaining %≤80%)	–	–	–	–
CNC(=O)c1ccccc1Nc1cc(Nc2cc(C)c(C3CCN(CC4CCN(c5cccc6c5C(=O)N(N5CCC(=O)NC5=O)C6=O)CC4)CC3)cc2OC(C)C)ncc1C(F)(F)F [GT-07666, 2-((2-((4-(1-((1-(2-(2,4-dioxotetrahydropyrimidin-1(2H)-yl)-1,3-dioxoisoindolin-4-yl)piperidin-4-yl)methyl)piperidin-4-yl)-2-isopropoxy-5-methylphenyl)amino)-5-(trifluoromethyl)pyridin-4-yl)amino)-N-methylbenzamide]	–	–	–	–	A (0%≤substrate protein remaining %≤80%)	–	–	–	–
